Drawing on PubChem BioAssay AID1259407 (Chemical Carcinogenesis Research Information System (CCRIS), 2018), this text covers mutagenic call for two molecules.

In the series the test system is CCRIS mutagenicity, Ames/micronucleus/aberration tests. In words: CCRIS mutagenicity studies.

Calls of active or inactive are those of the source. No rule for the calls is given here.

Regarding `COc1cc(OC)c(OC)cc1C=O`, the mutagenic call (Test System: AMES SALMONELLA TYPHIMURIUM, Strain/Indicator: TA98, Metabolic Activation: HAMSTER, LIVER, S-9, AROCLOR 1254 (10%), Method: PREINCUBATION) was “inactive; negative”; the mutagenic call (Test System: AMES SALMONELLA TYPHIMURIUM, Strain/Indicator: TA98, Metabolic Activation: NONE, Method: PREINCUBATION) is “inactive; negative”; the mutagenic call (Test System: AMES SALMONELLA TYPHIMURIUM, Strain/Indicator: TA98, Metabolic Activation: RAT, LIVER, S-9, AROCLOR 1254 (10%), Method: PREINCUBATION) was “inactive; negative”; the mutagenic call (Test System: AMES SALMONELLA TYPHIMURIUM, Strain/Indicator: TA100, Metabolic Activation: HAMSTER, LIVER, S-9, AROCLOR 1254 (10%), Method: PREINCUBATION) was “inactive; negative”; the mutagenic call (Test System: AMES SALMONELLA TYPHIMURIUM, Strain/Indicator: TA100, Metabolic Activation: NONE, Method: PREINCUBATION) was “inactive; negative”; the mutagenic call (Test System: AMES SALMONELLA TYPHIMURIUM, Strain/Indicator: TA100, Metabolic Activation: RAT LIVER S-9, AROCLOR 1254, Method: PREINCUBATION) was “inactive; negative”. Further, the mutagenic call runs as follows: (Test System: AMES SALMONELLA TYPHIMURIUM, Strain/Indicator: TA100, Metabolic Activation: RAT, LIVER, S-9, AROCLOR 1254 (10%), Method: PREINCUBATION) “inactive; negative”; (Test System: AMES SALMONELLA TYPHIMURIUM, Strain/Indicator: TA102, Metabolic Activation: NONE, Method: PREINCUBATION) “inactive; negative”; (Test System: AMES SALMONELLA TYPHIMURIUM, Strain/Indicator: TA102, Metabolic Activation: RAT LIVER S-9, AROCLOR 1254, Method: PREINCUBATION) “inactive; negative”; (Test System: AMES SALMONELLA TYPHIMURIUM, Strain/Indicator: TA104, Metabolic Activation: NONE, Method: PREINCUBATION) “inactive; negative”; (Test System: AMES SALMONELLA TYPHIMURIUM, Strain/Indicator: TA104, Metabolic Activation: RAT LIVER S-9, AROCLOR 1254, Method: PREINCUBATION) “inactive; negative”; (Test System: AMES SALMONELLA TYPHIMURIUM, Strain/Indicator: TA1535, Metabolic Activation: HAMSTER, LIVER, S-9, AROCLOR 1254 (10%), Method: PREINCUBATION) “inactive; negative”. In addition, the mutagenic call is “inactive; negative” (Test System: AMES SALMONELLA TYPHIMURIUM, Strain/Indicator: TA1535, Metabolic Activation: NONE, Method: PREINCUBATION); “inactive; negative” (Test System: AMES SALMONELLA TYPHIMURIUM, Strain/Indicator: TA1535, Metabolic Activation: RAT, LIVER, S-9, AROCLOR 1254 (10%), Method: PREINCUBATION); “inactive; negative” (Test System: AMES SALMONELLA TYPHIMURIUM, Strain/Indicator: TA1537, Metabolic Activation: HAMSTER, LIVER, S-9, AROCLOR 1254 (10%), Method: PREINCUBATION); “inactive; negative” (Test System: AMES SALMONELLA TYPHIMURIUM, Strain/Indicator: TA1537, Metabolic Activation: NONE, Method: PREINCUBATION); “inactive; negative” (Test System: AMES SALMONELLA TYPHIMURIUM, Strain/Indicator: TA1537, Metabolic Activation: RAT, LIVER, S-9, AROCLOR 1254 (10%), Method: PREINCUBATION); “active; positive. reevaluation of results: equivocal” (Test System: MOUSE LYMPHOMA, Strain/Indicator: L5178Y (TK+/TK-), Metabolic Activation: RAT, LIVER, S-9, AROCLOR 1254, Method: SUSPENSION/PLATE). Moreover, for the setting “Test System: Mouse lymphoma, Strain/Indicator: L5178Y (tk+/tk-), Metabolic Activation: None, Method: Suspension/plate”, the mutagenic call is “inactive; negative”.

Turning to `N#CC(Cl)(Cl)Cl`, the mutagenic call is “inactive; negative” (Test System: AMES SALMONELLA TYPHIMURIUM, Strain/Indicator: TA98, Metabolic Activation: NONE, Method: FLUCTUATION (MICROTITER)); “inactive; negative” (Test System: AMES SALMONELLA TYPHIMURIUM, Strain/Indicator: TA98, Metabolic Activation: NONE, Method: STANDARD PLATE); “inactive; negative” (Test System: AMES SALMONELLA TYPHIMURIUM, Strain/Indicator: TA98, Metabolic Activation: RAT LIVER S-9, AROCLOR 1254, Method: FLUCTUATION (MICROTITER)); “inactive; negative” (Test System: AMES SALMONELLA TYPHIMURIUM, Strain/Indicator: TA98, Metabolic Activation: RAT, LIVER, S-9, AROCLOR 1254, Method: STANDARD PLATE); “active; positive” (Test System: AMES SALMONELLA TYPHIMURIUM, Strain/Indicator: TA100, Metabolic Activation: NONE, Method: FLUCTUATION TEST); “inactive; negative” (Test System: AMES SALMONELLA TYPHIMURIUM, Strain/Indicator: TA100, Metabolic Activation: NONE, Method: STANDARD PLATE). The mutagenic call is, setting by setting: (Test System: AMES SALMONELLA TYPHIMURIUM, Strain/Indicator: TA100, Metabolic Activation: RAT, LIVER, S-9, AROCLOR 1254, Method: FLUCTUATION TEST) “inactive; negative”; (Test System: AMES SALMONELLA TYPHIMURIUM, Strain/Indicator: TA100, Metabolic Activation: RAT, LIVER, S-9, AROCLOR 1254, Method: STANDARD PLATE) “inactive; negative”; (Test System: AMES SALMONELLA TYPHIMURIUM, Strain/Indicator: TA1535, Metabolic Activation: NONE, Method: STANDARD PLATE) “inactive; negative”; (Test System: AMES SALMONELLA TYPHIMURIUM, Strain/Indicator: TA1535, Metabolic Activation: RAT, LIVER, S-9, AROCLOR 1254, Method: STANDARD PLATE) “inactive; negative”; (Test System: AMES SALMONELLA TYPHIMURIUM, Strain/Indicator: TA1537, Metabolic Activation: NONE, Method: FLUCTUATION (MICROTITER)) “inactive; negative”; (Test System: AMES SALMONELLA TYPHIMURIUM, Strain/Indicator: TA1537, Metabolic Activation: RAT LIVER S-9, AROCLOR 1254, Method: FLUCTUATION (MICROTITER)) “inactive; negative”. Moreover, the mutagenic call runs as follows: (Test System: AMES SALMONELLA TYPHIMURIUM, Strain/Indicator: TA7001, Metabolic Activation: NONE, Method: FLUCTUATION (MICROTITER)) “inactive; negative”; (Test System: AMES SALMONELLA TYPHIMURIUM, Strain/Indicator: TA7001, Metabolic Activation: RAT LIVER S-9, AROCLOR 1254, Method: FLUCTUATION (MICROTITER)) “inactive; negative”; (Test System: AMES SALMONELLA TYPHIMURIUM, Strain/Indicator: TA7002, Metabolic Activation: NONE, Method: FLUCTUATION (MICROTITER)) “inactive; negative”; (Test System: AMES SALMONELLA TYPHIMURIUM, Strain/Indicator: TA7002, Metabolic Activation: RAT LIVER S-9, AROCLOR 1254, Method: FLUCTUATION (MICROTITER)) “inactive; negative”; (Test System: AMES SALMONELLA TYPHIMURIUM, Strain/Indicator: TA7003, Metabolic Activation: NONE, Method: FLUCTUATION (MICROTITER)) “inactive; negative”; (Test System: AMES SALMONELLA TYPHIMURIUM, Strain/Indicator: TA7003, Metabolic Activation: RAT LIVER S-9, AROCLOR 1254, Method: FLUCTUATION (MICROTITER)) “inactive; negative”. Further, the mutagenic call reads like this: (Test System: AMES SALMONELLA TYPHIMURIUM, Strain/Indicator: TA7004, Metabolic Activation: NONE, Method: FLUCTUATION (MICROTITER)) “inactive; negative”; (Test System: AMES SALMONELLA TYPHIMURIUM, Strain/Indicator: TA7004, Metabolic Activation: RAT LIVER S-9, AROCLOR 1254, Method: FLUCTUATION (MICROTITER)) “inactive; negative”; (Test System: AMES SALMONELLA TYPHIMURIUM, Strain/Indicator: TA7005, Metabolic Activation: NONE, Method: FLUCTUATION (MICROTITER)) “inactive; negative”; (Test System: AMES SALMONELLA TYPHIMURIUM, Strain/Indicator: TA7005, Metabolic Activation: RAT LIVER S-9, AROCLOR 1254, Method: FLUCTUATION (MICROTITER)) “inactive; negative”; (Test System: AMES SALMONELLA TYPHIMURIUM, Strain/Indicator: TA7006, Metabolic Activation: NONE, Method: FLUCTUATION (MICROTITER)) “inactive; negative”; (Test System: AMES SALMONELLA TYPHIMURIUM, Strain/Indicator: TA7006, Metabolic Activation: RAT LIVER S-9, AROCLOR 1254, Method: FLUCTUATION (MICROTITER)) “inactive; negative”.
